One experiment relates to male Wistar rats. The experiment in a line: Spontaneous home cage activity and body temperature measured by radiotelemetry. Type of experiment: in vivo, rat. Particulars: oral administration, home cage activity by telemetry. The source says: In Vivo Assay: Spontaneous Home Cage Activity and Body Temperature Measured by Radiotelemetry in Laboratory Rats:
The objective of the present test is to record the circadian behavioral activity of rats after oral administration of a compound according to general formula (I) of the invention.
Decreased home cage activity measured by telemetry in male Wistar rats was considered as an indication for sleep-inducing potential of a restricted number of highly optimized 1,2,3,4-tetrahydroisoquinoline derivatives.
Psychotropic drugs such as antidepressants, antipsychotics, sleep inducers or psychostimulants are well known to reduce or enhance home cage activity and body temperature following oral administration to laboratory animals. Thermoregulation is a complex process that contributes to homeostasis by coordinating metabolism, energy balance and behaviour. Body temperature changes with circadian behavioural activity and increases when locomotion increases. These two parameters were measured by telemetry in conscious freely moving Wistar rats. Anaesthetized animals were implanted, under aseptic conditions, with a body temperature/activity telemetric device into the peritoneal cavity. More than two weeks after the implantation of the telemetry system, data were collected at 5 minutes intervals during 96 hours. Hourly means were calculated for each rat. The first 48 h were used as an internal control trace and drug effects were compared to vehicle placebo. This method is validated pharmacologically by measuring amplitude and time course of both hypoactivity and hypothermia induced by GABA-A receptor modulators such as zolpidem.

The next experiment addresses T1, CYP3A4 (Homo sapiens, UniProt P08684).
T1 construct: performed using human liver microsomes (pool of 10 individuals); from tissue; host or cells: human liver microsomes, pool of 10 individuals
The experiment in a line: Inhibitory potency against CYPs in human liver microsomes. It counts as in vitro ADME. The note with it: human liver microsomes 0.25 mg/ml, midazolam (5 μM) 1'-hydroxylation, 5 min. As for the experimental part: Measurements of the Inhibitory Potency Against Different CYPs:
The CYP inhibition studies are performed using human liver microsomes (pool of 10 individuals), literature-established CYP isoform-selective substrates and quantification by either LC-MS/MS (for CYP3A4 and CYP2C9) or conventional HPLC with fluorimetric detection (for CYP2D6). The specific probes were midazolam 1′-hydroxylation for CYP3A4, dextromethorphan 3-hydroxylation for CYP2D6 and diclofenac 4′-hydroxylation for CYP2C9. […] Controls (sulfaphenazole for CYP2C9, fluoxetine for CYP2D6, and nicardipine for CYP3A4) were run in parallel in each plate.
On the technique in general: Liver microsomes are a subcellular fraction often used to study metabolism.

T1 sequence (P08684 whole entry): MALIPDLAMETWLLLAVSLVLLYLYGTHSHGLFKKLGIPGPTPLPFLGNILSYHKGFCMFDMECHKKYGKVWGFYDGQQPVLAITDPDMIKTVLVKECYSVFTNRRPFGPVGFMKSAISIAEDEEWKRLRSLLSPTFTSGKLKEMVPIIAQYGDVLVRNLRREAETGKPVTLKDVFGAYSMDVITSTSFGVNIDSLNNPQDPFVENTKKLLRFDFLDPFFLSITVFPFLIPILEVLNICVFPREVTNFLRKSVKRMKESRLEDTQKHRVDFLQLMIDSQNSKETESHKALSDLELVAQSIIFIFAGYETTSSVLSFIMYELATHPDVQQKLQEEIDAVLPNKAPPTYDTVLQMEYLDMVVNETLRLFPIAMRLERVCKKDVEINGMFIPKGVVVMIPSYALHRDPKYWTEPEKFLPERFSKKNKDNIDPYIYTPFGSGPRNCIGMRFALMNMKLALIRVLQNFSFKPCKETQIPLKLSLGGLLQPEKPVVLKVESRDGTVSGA

With `CNC(=O)C(c1ccccc1)N1CCc2cc(OC)c(OC)cc2C1CCc1ccc(C(F)(F)F)cc1` (mixture of isomers) [Example 1, 2-{6,7-dimethoxy-1-[2-(4-trifluoromethyl-phenyl)-ethyl]-3,4-dihydro-1H-isoquinolin-2-yl}-N-methyl-2-phenyl-acetamide], in the experiment on male Wistar rats, the p.o activity entry is recorded as “yes”.

For `CNC(=O)[C@@H](c1ccccc1)N1CCc2cc(OC)c(OC)cc2[C@@H]1CCc1ccc(C(F)(F)F)cc1` [Example 2, (2R)-2-{(1S)-6,7-dimethoxy-1-[2-(4-trifluoromethyl-phenyl)-ethyl]-3,4-dihydro-1H-isoquinolin-2-yl}-N-methyl-2-phenyl-acetamide], the p.o activity result in the experiment with male Wistar rats is recorded as “yes”.

As for `CNC(=O)C(c1ccccc1)N1CCc2cc(OC)c(OC)cc2C1CCc1ccc(C(F)(F)F)nc1` (stereo not drawn) [Example 3, 2-{6,7-dimethoxy-1-[2-(6-trifluoromethyl-pyridin-3-yl)-ethyl]-3,4-dihydro-1H-isoquinolin-2-yl}-N-methyl-2-phenyl-acetamide], half-maximal inhibition against CYP3A4 (IC50) was put at 18 µM. Besides, in the experiment with male Wistar rats, the p.o activity result was “yes”.

`CNC(=O)[C@@H](c1ccccc1)N1CCc2cc(OC)c(OC)cc2[C@@H]1CCc1ccc(C(F)(F)F)nc1` [Example 4, (2R)-2-{(1S)-6,7-dimethoxy-1-[2-(6-trifluoromethyl-pyridin-3-yl)-ethyl]-3,4-dihydro-1H-isoquinolin-2-yl}-N-methyl-2-phenyl-acetamide]: the IC50 – broadly, the concentration that gives 50% inhibition – at CYP3A4 was 50 µM. The p.o activity result with male Wistar rats is reported as “yes”.

The values above are taken from patent US7763638B2, “Substituted 1,2,3,4-tetrahydroisoquinoline derivatives” (Actelion Pharmaceuticals Ltd., priority 2004, dated 2010).
